Values of other authors, collected in patent US11167277B2, “Cu(I)-catalyzed azide-alkyne cycloadditions (CuAAC) ligands and methods for carrying out Cu(I)-catalyzed azide-alkyne cycloaddition reactions” (UNIVERSITY OF PITTSBURGH-OF THE COMMONWEALTH SYSTEM OF …, priority 2014, dated 2021).

System: Zebrafish embryos
Settings: co-treatment with 1 mM CuSO4, 1.5 mM sodium ascorbate and 0.1 mM TBTA; toxicity attributed to copper(I)

## c1ccc(Cn2cc(CN(Cc3cn(Cc4ccccc4)nn3)Cc3cn(Cc4ccccc4)nn3)nn2)cc1 [TBTA]
  time beyond which Zebrafish embryos do not survive: ≤ 15 min
